Reference: article PMC4456360, “A Recombinant Fungal Lectin for Labeling Truncated Glycans on Human Cancer Cells” (PLoS ONE, 2015)
pKd: −log10 of the molar value. “And” between values parts separate entries of the source, which are not always exact repeats. Equal values may be shown once. Marks after values point to notes of the source that are not given here.

Columns and labels:
[1] = target: T1, rPVL (Lacrymaria velutina (Psathyrella velutina), UniProt Q309D1); test: Surface plasmon resonance, oligosaccharides injected over rPVL-coated CM5 chip; format: binding; conditions: 25°C, rPVL immobilized on chip; for pKd: read-out: SPR Kd
T1 sequence (Q309D1 1-395): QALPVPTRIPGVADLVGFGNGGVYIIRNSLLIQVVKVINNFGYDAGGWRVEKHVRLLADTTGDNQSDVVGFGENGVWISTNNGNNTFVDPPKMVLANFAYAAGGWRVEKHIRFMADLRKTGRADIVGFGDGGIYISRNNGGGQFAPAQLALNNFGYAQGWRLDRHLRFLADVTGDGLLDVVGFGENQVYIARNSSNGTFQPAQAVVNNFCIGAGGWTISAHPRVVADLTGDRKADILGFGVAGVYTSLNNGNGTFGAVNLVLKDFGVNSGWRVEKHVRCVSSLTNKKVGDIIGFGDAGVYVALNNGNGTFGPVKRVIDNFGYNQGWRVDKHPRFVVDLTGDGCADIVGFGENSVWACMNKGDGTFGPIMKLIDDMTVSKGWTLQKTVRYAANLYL
Procedure: All SPR experiments were performed on a Biacore X100 instrument (GE Healthcare) at 25°C in HBS (10 mM Hepes/NaOH, pH 7.5, 150 mM NaCl, 0.05% Tween 20) supplemented with 100 μM of CaCl2 at a flow rate of 30 μl min^-1. Binding was measured as resonance units over time after blank subtraction, and data were then evaluated by using the Biacore X100 evaluation software, version 2.0. Dissociation constants were determined by plotting response at equilibrium (Req, 10 s before the end of injection) against analyte concentration. For protein coated chip, 3500 resonance units of rPVL (100 μg ml^-1, 10 mM acetate buffer pH 6.2) have been immobilized on flow channel 2 of a research grade CM5 chip using standard amine coupling procedures. Flow channel 1 has been activated/deactivated. Experiments consist of injection (association 360 s, dissociation 400 s) of various concentrations of oligosaccharides (2 fold cascade dilutions, from 0 to 10 μM) on both channels.

[2] = target: T1, rPVL; test: Titration microcalorimetry (ITC), rPVL in solution; format: binding; conditions: for ITC -∆H / ITC T∆S / ITC n (number of binding sites per monomer) / pKd: 25°C; for pKd: rPVL in solution; for ITC n: stoichiometry value fixed during fitting procedure
Procedure: Recombinant lyophilized rPVL was dissolved in buffer (20 mM Tris/HCl, pH 7.5, NaCl 150 mM, 100 μM CaCl2) and degassed. The protein concentration was checked by measuring A280 by using a theoretical molar extinction coefficient of 65,890 M^-1 cm^-1. Carbohydrate ligands were dissolved in the same buffer, degassed, and loaded in the injection syringe. ITC was performed with a ITC200 microcalorimeter (GE Healthcare). The rPVL solution was placed in a 200 μl sample cell at 25°C. Titration was performed with 20 injections of 2 μl carbohydrate ligands every 120 s. The experimental data were fitted to a theoretical titration curve using Origin software supplied by GE Healthcare, with ΔH (enthalpy change), Ka (association constant) and n (number of binding sites per monomer) as adjustable parameters. Free energy change (ΔG) and entropy contributions (TΔS) were derived from the equation ΔG = ΔH – TΔS = —RT ln Ka (with T as the absolute temperature and R = 8.314 J mol^-1 K^-1). Two independent titrations were performed for each tested ligand.

[3] = target: T1, rPVL; test: Glycan array (CFG Mammalian Printed Array version 5.1); format: binding; conditions: Alexa Fluor 488 labeled rPVL
Description: Purified rPVL were labeled with Alexa Fluor 488 (Invitrogen) according to the manufacturer’s instructions and repurified on a D-Salt polyacrylamide desalting column (Pierce). Alexa-labeled rPVL was used for glycan array screening with the standard procedure of the Protein-Glycan Interaction Core (H) of the Consortium for Functional Glycomics.

[4] = target: native PVL; design: method as in PMID 16497330; conditions: ITC, native PVL isolated from mushroom; cited from earlier work
[5] = target: T1, rPVL; test: Thermal shift analysis of rPVL with glycan ligands; format: binding
Procedure: Thermal shift assays were performed using a Mini Opticon, Real Time PCR machine (Bio-Rad Laboratories) with 0.5 mg ml^-1 of protein diluted in 100 mM NaCl, 20 mM Tris pH 7.5, 100 μM CaCl2, with or without oligosaccharide in a total reaction volume of 25 μl. SYPRO Orange (Molecular Probes, CA) was used as a fluorescent probe detected at 530 nm. The temperature was raised using 1°C/minute steps from 25°C to 100°C and fluorescence readings were taken at each interval. […] A minimum of two independent measurements were performed for each condition

Row | Compound | pKd [1] | ITC -∆H [2] [kJ/mol] | ITC T∆S [2] [kJ/mol] | pKd [2] | further results
1 | CC(=O)N[C@@H]1[C@@H](O)[C@H](O[C@@H]2O[C@H](CO)[C@@H](O[C@@H]3O[C@H](CO[C@H]4O[C@H](CO)[C@@H](O)[C@H](O)[C@@H]4O[C@@H]4O[C@H](CO)[C@@H](O)[C@H](O)[C@H]4NC(C)=O)[C@@H](O)[C@H](O[C@H]4O[C@H](CO)[C@@H](O)[C@H](O)[C@@H]4O[C@@H]4O[C@H](CO)[C@@H](O)[C@H](O)[C@H]4NC(C)=O)[C@@H]3O)[C@H](O)[C@H]2NC(C)=O)[C@@H](CO)O[C@H]1N=[N+]=[N-] [Biantennary N-glycan (2)] | 3.75 | 13.7 | 11.8 | 4.47 and 4.46 | ITC n (number of binding sites per monomer) [2]: 1.9 ± 0.6; ITC n (number of binding sites per monomer) ([2]; listed as biantennary heptasaccharide): two
2 | CC(=O)N[C@H]1[C@H](O[C@H]2[C@@H](O)[C@@H](CO)OC(O)[C@@H]2NC(C)=O)O[C@H](CO)[C@H](O)[C@@H]1O (some centres unmarked) [GalNAcβ1-3GalNAc] | – | – | – | – | binding of rPVL on glycan array (in words) [3]: minor intensity
3 | CC(=O)N[C@H]1[C@H](O[C@H]2[C@H](O)[C@@H](NC(C)=O)[C@H](O[C@H]3[C@H](O)[C@@H](NC(C)=O)C(O)O[C@@H]3CO)O[C@@H]2CO)O[C@H](CO)[C@@H](O[C@@H]2O[C@H](CO)[C@@H](O[C@@H]3O[C@H](CO)[C@@H](O)[C@H](O)[C@H]3NC(C)=O)[C@H](O)[C@H]2NC(C)=O)[C@@H]1O (stereo partly drawn) [GlcNAc(β1-4GlcNAc)4, GlcNAcβ1-4GlcNAcβ1-4GlcNAcβ1-4GlcNAcβ1-4GlcNAc] | 3.45 | – | – | – | –
4 | CC(=O)N[C@@H]1[C@@H](O)[C@H](O)[C@@H](CO)O[C@H]1O [GlcNAc, N-acetylglucosamine] | 3.88 | 41.2 | -18.0 | 3.91 | ITC n [2]: 5.0 ^b; pKd [4]: ~3.70
5 | CC(=O)N[C@H]1[C@H](O[C@H]2[C@@H](O)[C@@H](CO)OC(O)[C@@H]2O)O[C@H](CO)[C@@H](O)[C@@H]1O (some centres unmarked) [GlcNAcβ1-3Gal] | 3.99 | 42.1 | -19.5 | 3.96 | Tm of rPVL in the presence of ligand [5]: 60 °C
6 | CC(=O)N[C@H]1[C@H](O[C@H]2[C@@H](O)[C@@H](CO)O[C@@H](O[C@H]3[C@H](O)[C@@H](O)C(O)O[C@@H]3CO)[C@@H]2O)O[C@H](CO)[C@@H](O)[C@@H]1O (some centres unmarked) [GlcNAcβ1-3Galβ1-4Glc (LNT2), GlcNAcβ1-3Galβ1-4Glc] | 4.15 | 41.7 | -19.1 | 3.97 | pKd ([1]; listed as lacto-N-triose): ~4.15; ITC n (number of binding sites per monomer) [2]: 5.0 ± 0.2
7 | CC(=O)N[C@H]1[C@H](O[C@H]2[C@H](O)[C@@H](NC(C)=O)C(O)O[C@@H]2CO)O[C@H](CO)[C@@H](O)[C@@H]1O (some centres unmarked) [GlcNAcβ1-4GlcNAc] | 3.69 | 36.9 | -14.6 | 3.91 | ITC n [2]: 5.0 ^b; Tm of rPVL in the presence of ligand [5]: 60 °C; binding of rPVL on glycan array (in words) [3]: only weakly
8 | O=C[C@H](O)[C@@H](O)[C@@H](O)[C@H](O)CO [galactose] | – | – | – | – | stabilization of rPVL by carbohydrate (in words) [5]: non-binding
9 | OC[C@H]1O[C@@](CO)(O[C@H]2O[C@H](CO)[C@@H](O)[C@H](O)[C@H]2O)[C@@H](O)[C@@H]1O [sucrose] | – | – | – | – | stabilization of rPVL by carbohydrate (in words) [5]: non-binding
10 | Galβ1-3GlcNAcβ1-3Galβ1-4Glc [Galβ1-3GlcNAcβ1-3Galβ1-4Glc (LNT)] | – | – | – | – | SPR Kd [1]: No binding
